#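 1) Cells in 96-well plates. 2) Compound, 48 h, 5 concentrations. 3) Linear interpolation between surrounding doses. 4) Unreached endpoint = highest concentration. TGI is the concentration that stops growth completely.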
# What was measured:
# Experiment in all cases: inhibition of tumour cell growth, NCI panel, 48 h
# [1] = test system: M14 melanoma
# [2] = test system: UACC-62 melanoma
# [3] = test system: SK-MEL-28 melanoma
# [4] = test system: SN12C renal
# [5] = test system: NCI-H226 lung
# [6] = test system: UO-31 renal
# [7] = test system: MDA-N
# [8] = test system: T-47D breast
# [9] = test system: RPMI-8226 leukemia
# [10] = test system: COLO 205 colon
# [11] = test system: 786-0 renal
# [12] = test system: OVCAR-3 ovarian
# [13] = test system: TK-10 renal
# [14] = test system: DU-145 prostate
# [15] = test system: EKVX NSCLC
# [16] = test system: SNB-75 CNS
# [17] = test system: CAKI-1 renal
# [18] = test system: NCI-H23 lung
# [19] = test system: SNB-19 CNS
# [20] = test system: ACHN renal
# [21] = test system: A549 NSCLC
# [22] = test system: UACC-257 melanoma
# [23] = test system: A498 renal
# [24] = test system: NCI/ADR-RES ovarian
# [25] = test system: OVCAR-4 ovarian
# [26] = test system: HOP-92 NSCLC
# [27] = test system: SW-620 colon
# [28] = test system: U251 CNS
# [29] = test system: IGROV1 ovarian
# [30] = test system: SK-MEL-5 melanoma
# [31] = test system: MDA-MB-435
# [32] = test system: HT29 colon
# [33] = test system: SF-268 CNS
# [34] = test system: SF-539 CNS
# [35] = test system: HOP-62 NSCLC
# [36] = test system: OVCAR-5 ovarian
# [37] = test system: MOLT-4 leukemia
# [38] = test system: BT-549 breast
# [39] = test system: OVCAR-8 ovarian
# [40] = test system: SK-OV-3 ovarian
# [41] = test system: HCT-116 colon
# [42] = test system: NCI-H460 lung
# [43] = test system: MDA-MB-231 breast
# [44] = test system: MCF7 breast
# [45] = test system: HCT-15 colon
# [46] = test system: KM12 colon
# [47] = test system: HCC-2998 colon
# [48] = test system: PC-3 prostate
# [49] = test system: NCI-H522 lung
# [50] = test system: SR leukemia
# [51] = test system: SF-295 CNS
# [52] = test system: SK-MEL-2 melanoma
# [53] = test system: LOX IMVI melanoma
# [54] = test system: MALME-3M melanoma
# [55] = test system: RXF 393 renal
# [56] = test system: CCRF-CEM leukemia
# [57] = test system: HS 578T breast
# [58] = test system: K-562 leukemia
# [59] = test system: HL-60(TB) leukemia
structure (smiles),measurement,setting,value
Cn1c(=O)oc2nc(-c3ccccc3)cc(C(F)(F)F)c21,TGI,[1],> 100 µM
same,TGI,[2],> 100 µM
same,TGI,[3],> 100 µM
same,TGI,[4],> 100 µM
same,TGI,[5],> 100 µM
same,TGI,[6],> 100 µM
same,TGI,[7],> 100 µM
same,TGI,[8],> 100 µM
same,TGI,[9],> 100 µM
same,TGI,[10],> 100 µM
same,TGI,[11],> 100 µM
same,TGI,[12],> 100 µM
same,TGI,[13],> 100 µM
same,TGI,[14],> 100 µM
same,TGI,[15],> 100 µM
same,TGI,[16],> 100 µM
same,TGI,[17],> 100 µM
same,TGI,[18],> 100 µM
same,TGI,[19],> 100 µM
same,TGI,[20],> 100 µM
same,TGI,[21],> 100 µM
same,TGI,[22],> 100 µM
same,TGI,[23],55.7 µM
same,TGI,[24],> 100 µM
same,TGI,[25],> 100 µM
same,TGI,[26],81 µM
same,TGI,[27],> 100 µM
same,TGI,[28],> 100 µM
same,TGI,[29],> 100 µM
same,TGI,[30],> 100 µM
same,TGI,[31],> 100 µM
same,TGI,[32],> 100 µM
same,TGI,[33],> 100 µM
same,TGI,[34],> 100 µM
same,TGI,[35],> 100 µM
same,TGI,[36],> 100 µM
same,TGI,[37],> 100 µM
same,TGI,[38],> 100 µM
same,TGI,[39],> 100 µM
same,TGI,[40],> 100 µM
same,TGI,[41],> 100 µM
same,TGI,[42],> 100 µM
same,TGI,[43],> 100 µM
same,TGI,[44],> 100 µM
same,TGI,[45],> 100 µM
same,TGI,[46],> 100 µM
same,TGI,[47],> 100 µM
same,TGI,[48],> 100 µM
same,TGI,[49],> 100 µM
same,TGI,[50],> 100 µM
same,TGI,[51],> 100 µM
same,TGI,[52],> 100 µM
Cc1nn(-c2ccccc2)c(C)c1/C=N/N=C1\S/C(=C\c2ccc(Cl)cc2)C(=O)N1c1ccccc1,TGI,[1],> 100 µM
same,TGI,[2],> 100 µM
same,TGI,[3],> 100 µM
same,TGI,[4],> 100 µM
same,TGI,[5],> 100 µM
same,TGI,[6],> 100 µM
same,TGI,[7],> 100 µM
same,TGI,[8],> 100 µM
same,TGI,[9],> 100 µM
same,TGI,[10],> 100 µM
same,TGI,[11],7.89 µM
same,TGI,[12],> 100 µM
same,TGI,[13],> 100 µM
same,TGI,[14],> 100 µM
same,TGI,[15],> 100 µM
same,TGI,[16],71.8 µM
same,TGI,[53],> 100 µM
same,TGI,[17],> 100 µM
same,TGI,[18],> 100 µM
same,TGI,[19],> 100 µM
same,TGI,[20],> 100 µM
same,TGI,[21],> 100 µM
same,TGI,[22],> 100 µM
same,TGI,[23],> 100 µM
same,TGI,[24],> 100 µM
same,TGI,[25],4.74 µM
same,TGI,[54],> 100 µM
same,TGI,[26],> 100 µM
same,TGI,[27],> 100 µM
same,TGI,[55],84.3 µM
same,TGI,[28],> 100 µM
same,TGI,[29],> 100 µM
same,TGI,[56],> 100 µM
same,TGI,[30],> 100 µM
same,TGI,[31],> 100 µM
same,TGI,[32],> 100 µM
same,TGI,[33],> 100 µM
same,TGI,[34],> 100 µM
same,TGI,[35],> 100 µM
same,TGI,[57],60.9 µM
same,TGI,[58],> 100 µM
same,TGI,[36],> 100 µM
same,TGI,[37],27.2 µM
same,TGI,[38],> 100 µM
same,TGI,[39],> 100 µM
same,TGI,[40],> 100 µM
same,TGI,[41],> 100 µM
same,TGI,[42],> 100 µM
same,TGI,[43],> 100 µM
same,TGI,[44],> 100 µM
same,TGI,[45],> 100 µM
same,TGI,[46],> 100 µM
same,TGI,[48],> 100 µM
same,TGI,[59],24.4 µM
same,TGI,[51],> 100 µM
same,TGI,[52],> 100 µM
COC[C@@H](N=Cc1ccc([N+](=O)[O-])cc1)C(C)C,TGI,[1],> 100 µM
same,TGI,[2],> 100 µM
same,TGI,[3],> 100 µM
same,TGI,[4],> 100 µM
same,TGI,[6],> 100 µM
same,TGI,[7],> 100 µM
same,TGI,[9],> 100 µM
same,TGI,[11],> 100 µM
same,TGI,[13],> 100 µM
same,TGI,[14],> 100 µM
same,TGI,[15],> 100 µM
same,TGI,[16],> 100 µM
same,TGI,[53],> 100 µM
same,TGI,[17],> 100 µM
same,TGI,[18],> 100 µM
same,TGI,[19],> 100 µM
same,TGI,[20],> 100 µM
same,TGI,[21],> 100 µM
same,TGI,[22],> 100 µM
same,TGI,[24],> 100 µM
same,TGI,[25],> 100 µM
same,TGI,[54],> 100 µM
same,TGI,[27],> 100 µM
same,TGI,[55],> 100 µM
same,TGI,[28],> 100 µM
same,TGI,[29],> 100 µM
same,TGI,[56],> 100 µM
same,TGI,[31],> 100 µM
same,TGI,[32],> 100 µM
same,TGI,[33],> 100 µM
same,TGI,[57],> 100 µM
same,TGI,[58],> 100 µM
same,TGI,[36],> 100 µM
same,TGI,[37],> 100 µM
same,TGI,[39],> 100 µM
same,TGI,[40],> 100 µM
same,TGI,[41],> 100 µM
same,TGI,[42],> 100 µM
same,TGI,[43],> 100 µM
same,TGI,[44],> 100 µM
same,TGI,[45],> 100 µM
same,TGI,[46],> 100 µM
same,TGI,[48],> 100 µM
same,TGI,[49],> 100 µM
same,TGI,[50],> 100 µM
same,TGI,[51],> 100 µM
same,TGI,[52],> 100 µM
O=C1NC(=O)C(C(CC(=O)c2ccc(Cl)cc2)c2ccc(Cl)cc2)C(=O)N1 (configuration not stated),TGI,[1],> 100 µM
same,TGI,[2],> 100 µM
same,TGI,[3],> 100 µM
same,TGI,[4],> 100 µM
same,TGI,[5],> 100 µM
same,TGI,[6],> 100 µM
same,TGI,[7],> 100 µM
same,TGI,[9],> 100 µM
same,TGI,[11],> 100 µM
same,TGI,[12],> 100 µM
same,TGI,[14],> 100 µM
same,TGI,[15],> 100 µM
same,TGI,[16],> 100 µM
same,TGI,[53],> 100 µM
same,TGI,[18],> 100 µM
same,TGI,[19],> 100 µM
same,TGI,[20],> 100 µM
same,TGI,[21],> 100 µM
same,TGI,[22],> 100 µM
same,TGI,[23],> 100 µM
same,TGI,[25],> 100 µM
same,TGI,[54],7.63 µM
same,TGI,[26],> 100 µM
same,TGI,[27],> 100 µM
same,TGI,[28],> 100 µM
same,TGI,[29],> 100 µM
same,TGI,[56],> 100 µM
same,TGI,[30],> 100 µM
same,TGI,[31],> 100 µM
same,TGI,[32],> 100 µM
same,TGI,[33],> 100 µM
same,TGI,[34],> 100 µM
same,TGI,[35],> 100 µM
same,TGI,[57],> 100 µM
same,TGI,[58],> 100 µM
same,TGI,[36],> 100 µM
same,TGI,[37],> 100 µM
same,TGI,[38],> 100 µM
same,TGI,[39],> 100 µM
same,TGI,[41],> 100 µM
same,TGI,[42],> 100 µM
same,TGI,[43],> 100 µM
same,TGI,[44],44.2 µM
same,TGI,[45],> 100 µM
same,TGI,[46],> 100 µM
same,TGI,[47],> 100 µM
same,TGI,[48],> 100 µM
same,TGI,[49],> 100 µM
same,TGI,[59],> 100 µM
same,TGI,[50],> 100 µM
same,TGI,[51],> 100 µM
same,TGI,[52],> 100 µM

# — PubChem BioAssay (NCI)
